Data: patent publication US20250066320A1, “Active Ingredients with Sialagogue and Tingling/Fizzy Effect, and Preparations Containing Same” (Symrise AG, priority 2021, published 2025)

Experiment: Sensory tasting of the active ingredients (mouth-watering and/or tingling effect) by a trained expert panel
Format: in vivo, human
Conditions: for Sensory Rating: intensity of mouth-watering and/or tingling/fizzing effect (figure in brackets): 50 ppm
Protocol: The sensory tasting of the active ingredients according to the invention was carried out as follows: • (1) The active ingredients were each prepared in a 5% sugar solution or in an unflavored standard fondant mass. Fondant is the name for a soft, pasty sugar mass that is used to make various confectionery products. Fondant is made from water and sucrose as well as glucose syrup, invert sugar cream and/or sugar alcohols (e.g., sorbitol or mannitol). The mixture is boiled and then processed into a soft paste by kneading it vigorously and cooling it quickly. • (2) The concentration of the active ingredients was 25 or 50 ppm. • (3) The test samples were tested under practical conditions by a panel of experts with sensory training. For tasting, 3 to 7 tasters each rinsed their mouths with approx. 5 ml of the sugar solution and spat the solution out again. The mouth-watering and/or tingling effect was assessed on a scale of 1 (very weak) to 10 (very strong) and the profile evaluated.

[1] = 25 ppm in 5% sugar solution or unflavored fondant mass, 3 to 7 tasters
[2] = 50 ppm in 5% sugar solution or unflavored fondant mass, 3 to 7 tasters
[3] = scale of 1 (very weak) to 10 (very strong)

Compound	Sensory Rating (profile in words) [1]	Sensory Rating (profile in words) [2]	Sensory Rating: intensity of mouth-watering and/or tingling/fizzing effect (figure in brackets) [3]	also measured
CCCOc1ccc(C(=O)N2CCN(C/C=C/c3ccccc3)CC2)cc1OCCC [Compound 1, [4-[(E)-cinnamyl]pi-perazin-1-yl]-(3,4-dipropoxy-phenyl)methanone]	astringent mouth-watering, Spilanthes effect			
COc1ccc(C(=O)N2CCN(C/C=C/c3ccccc3)CC2)cc1OC [Compound 3, [4-[(E)-cinnamyl]piperazin-1-yl]-(3,4-dimethoxy-phenyl)methanone]		tingling/ fizzing		
COc1cc(C(=O)N2CCN(C/C=C/c3ccccc3)CC2)ccc1O [Compound 4, [4-[(E)-cinnamyl]piperazin-1-yl]-(4-hydroxy-3-methoxy-phenyl)methanone]		balsamic		
COc1cc(C(=O)N2CCN(C/C=C/c3ccccc3)CC2)cc(OC)c1OC [Compound 5, [4-[(E)-cinnamyl]piperazin-1-yl]-(3,4,5-trimethoxy-phenyl)methanone]	chocolaty, dusty, after cress			
CCCOc1ccc(C(=O)N2CCN(C/C=C/c3ccccc3)CC2)cc1OCCC [Compound 6, [4-[(E)-cinnamyl]piperazin-1-yl]-(3,4-dipropoxy-phenyl)methanone]	bitter, light astringent			
CCOc1ccc(C(=O)N2CCN(CCCc3ccccc3)CC2)cc1OCC [Compound 7, (3,4-Diethoxy-phenyl)-[4-(3-phenyl-propyl)piperazin-1-yl]methanone]	tingling/ fizzing, mouth-watering, slightly cooling			
CCOc1ccc(C(=O)N2CCN(Cc3ccccc3)CC2)cc1OCC [Compound 8, (4-benzylpiperazin-1-yl)-(3,4-diethoxy-phenyl)methanone]	slightly tingling/ fizzing, slightly mouth-watering, slightly cooling			
COc1ccc(C(=O)N2CCN(C/C=C/c3ccccc3)CC2)cc1O [Compound 9, [4-[(E)-cinnamyl]piperazin-1-yl]-(3-hydroxy-4-methoxy-phenyl)methanone]	sweet, after melon			
CC(C)Oc1ccc(C(=O)N2CCN(C/C=C/c3ccccc3)CC2)cc1OC(C)C [Compound 10, [4-[(E)-cinnamyl]piperazin-1-yl]-(3,4-diisopropoxy-phenyl)methanone]	astringent, bitter			
CCOc1ccc(C(=O)N2CCN(CCCCc3ccccc3)CC2)cc1OCC [Compound 11, (3,4-Diethoxy-phenyl)-[4-(4-phenyl-butyl)piperazin-1-yl]methanone]	tingling/ fizzing, like melon, astringent, mouth-watering			
CCOc1ccc(C(=O)N2CCN(CCc3ccncc3)CC2)cc1OCC [Compound 12, (3,4-Diethoxy-phenyl)-[4-[2-(4-pyridyl)ethyl]piperazin-1-yl] methanone]	tingling/ fizzing, mouth-watering, ethanolic			
CCOc1ccc(C(=O)N2CCN(CCOc3ccccc3)CC2)cc1OCC [Compound 13, (3,4-Diethoxy-phenyl)-[4-(2-phenoxyethyl)piperazin-1-yl] methanone]	strong tingling/ fizzing, mouth-watering,			
CCOc1ccc(C(=O)N2CCN(Cc3ccncc3)CC2)cc1OCC [Compound 14, (3,4-Diethoxy-phenyl)-[4-(4-pyridyl-methyl)piperazin-1-yl]methanone]	slightly tingling/ fizzing, mouth-watering, burning,			
CCOc1ccc(C(=O)N2CCN(CCc3ccccc3)CC2)cc1OCC [Compound 15, (3,4-Diethoxy-phenyl)-[4-(2-phenyl-ethyl)piperazin-1-yl]methanone]	Acid effect, tingling/ fizzing, mouth-watering, slightly salty			
O=C(c1ccccc1)N1CCN(CCCCc2ccccc2)CC1 [Compound 16, Phenyl-[4-(4-phenylbutyl)piperazin-1-yl]methanone]	slightly tingling/ fizzing	metallic taste, mouth-watering and tingling/ fizzing effect	2-3	
O=C(c1ccccc1)N1CCN(C/C=C/c2ccccc2)CC1 [Compound 17, [4-[(E)-cinnamyl]piperazin-1-yl]-phenyl-methanone]		slightly tingling/ fizzing, slightly honey-like	3	
O=C(c1ccccc1)N1CCN(CCc2ccccc2)CC1 [Compound 18, Phenyl-[4-(2-phenyl-ethyl)piperazin-1-yl]methanone]	no effect	slightly tingling/ fizzing and mouth-watering	2-3	
O=C(c1ccccc1)N1CCN(CCC2CCCCC2)CC1 [Compound 19, [4-(2-cyclo-hexylethyl)piperazin-1-yl]-phenyl-methanone]	fruity, slightly mouth-watering	of mushrooms, fruity, slightly metallic taste, slightly tingling/ fizzing	1-2	
O=C(c1ccccc1)N1CCC(CCCc2ccccc2)CC1 [Compound 20, Phenyl-[4-(3-phenyl-propyl)-1-piperidyl]-methanone]		slightly tingling/ fizzing (2), mouth-watering, Anthranilate- like, fruity note	slightly tingling/ fizzing (2), mouth-watering, Anthranilate- like, fruity note	
O=C(c1ccccc1)N1CCN(CCCc2ccccc2)CC1 [Compound 21, Phenyl-[4-(3-phenylpropyl)piperazin-1-yl] methanone]	sweet, fruity, slightly tingling/ fizzing	slightly tingling/ fizzing and mouth-watering	2-3	
O=C(c1ccccc1)N1CCCN(CCc2ccccc2)CC1 [Compound 22, Phenyl-[4-(2-phenyl-ethyl)-1,4-diazepan-1-yl] methanone]	floral, linalool flavor	very light metallic taste, remarkably mouth-watering and tingling/ fizzing	4-5	
O=C(c1ccccc1)N1CCN(Cc2ccccc2)CC1 [Compound 23, (4-benzylpiperazin-1-yl)-phenyl-methanone]		Slightly floral taste, slightly metallic, not a pleasant taste, very slightly mouth-watering and tingling/fizzing	3	
CCOc1ccc(C(=O)N2CCN(CCC3CCCCC3)CC2)cc1OCC [Compound 24, [4-(2-cyclo-hexylethyl)piperazin-1-yl]-(3,4-diethoxy-phenyl)methanone]		fruity taste (blueberries)		
CCOc1ccc(C(=O)N2CCC(CCCc3ccccc3)CC2)cc1OCC [Compound 25, (3,4-Diethoxy-phenyl)-[4-(3-phenyl-propyl)-1-piperidyl]-methanone]		Very slightly tingling/fizzing (2-3), sharp, astringent	Very slightly tingling/fizzing (2-3), sharp, astringent	
CCOc1ccc(C(=O)N2CCCN(CCc3ccccc3)CC2)cc1OCC [Compound 26, (3,4-Diethoxy-phenyl)-[4-(2-phenyl-ethyl)-1,4-diazepan-1-yl]methanone]		Very slightly tingling/fizzing (1-2), and mouth-watering (weak)	Very slightly tingling/fizzing (1-2), and mouth-watering (weak)	
COc1ccc(C(=O)N2CCN(CCCCc3ccccc3)CC2)cc1OC [Compound 27, (3,4-Dimethoxy-phenyl)-[4-(4-phenyl-butyl)piperazin-1-yl]methanone]		slightly tingling/ fizzing (4-5), and mouth-watering, metallic after- taste, weakly burning	slightly tingling/ fizzing (4-5), and mouth-watering, metallic after- taste, weakly burning	
COc1ccc(C(=O)N2CCN(CCc3ccccc3)CC2)cc1OC [Compound 28, (3,4-Dimethoxy-phenyl)-[4-(2-phenyl-ethyl)piperazin-1-yl]methanone]				Sensory Rating (profile in words) (dosage 25 and 50 ppm, cell not split by dosage): slightly tingling/ fizzing (3) slightly metallic; Sensory Rating: intensity of tingling/fizzing effect (figure in brackets) (dosage 25 and 50 ppm, cell not split by dosage, scale of 1 (very weak) to 10 (very strong)): slightly tingling/ fizzing (3) slightly metallic
COc1ccc(C(=O)N2CCN(CCC3CCCCC3)CC2)cc1OC [Compound 29, [4-(2-cyclo-hexylethyl)piperazin-1-yl]-(3,4-dimethoxy-phenyl)methanone]		slightly mouth-watering, slightly tingling/ fizzing (1-2), green note, light onion flavor	slightly mouth-watering, slightly tingling/ fizzing (1-2), green note, light onion flavor	
COc1ccc(C(=O)N2CCC(CCCc3ccccc3)CC2)cc1OC [Compound 30, (3,4-Dimethoxy-phenyl)-[4-(3-phenyl-propyl)-1-piperidyl]methanone]		very slight tingling/fizzing and mouth-watering, dry in the mouth		
COc1ccc(C(=O)N2CCN(CCCc3ccccc3)CC2)cc1OC [Compound 31, (3,4-Dimethoxy-phenyl)-[4-(3-phenyl-propyl)piperazin-1-yl]methanone]		tingling/ fizzing (5-6), and mouth-watering, fruity note, Honey flavor	tingling/ fizzing (5-6), and mouth-watering, fruity note, Honey flavor	
